Laboratory results reported in patent US9315475B2 (MERCK SHARP & DOHME CORP., priority 2011, dated 2016).

The compounds below were run against T1, wildtype HIV-1 protease (Human immunodeficiency virus type 1 group M subtype B, UniProt P04585) (assay: Assay for inhibition of microbial expressed HIV protease (Pepcleav)). Settings: wild type HIV-1 protease expressed in E. coli, peptide substrate, pH 5.5; mean of at least two independent experiments; read-out: Pepcleav.
T1 construct: the wildtype HIV-1 protease (which was expressed in Escherichia coli); made in house; host or cells: Escherichia coli
Format: biochemical
Protocol: Assay for Inhibition of Microbial Expressed HIV Protease (“Pepcleav”)
Studies of the inhibition of the wildtype HIV-1 protease (which was expressed in Escherichia coli) were carried out with a peptide substrate [Val-Ser-Gln-Asn-(βnaphthyl)Ala-Pro-Ile-Val (SEQ ID NO:1)]. The inhibitor is first preincubated with the HIV-1 protease (wild type) enzyme in assay buffer (50 mM sodium acetate, pH 5.5, 100 mM NaCl, and 0.1% BSA) for 30 minutes at room temperature. Substrate is added to 400 micromolar in a total volume of 20 microliters containing 20 picomolar HIV-1 protease (final) and the reaction is incubated for 1 hour at 30° C. The reaction is quenched with the addition of formic acid and indinavir to 0.012% and 150 nM final concentrations, respectively. The product formation is determined after separation of product and substrate on a Zorbax Eclipse XDB-C 18 column connected to an API 4000 mass spectrometer (Applied Biosystems) with multiple reaction monitoring (transitions were 644.5/428.9 and 615.4/422.2 (M1/M3) for product and indinavir respectively). The extent of inhibition of the reaction is determined from the peak area of the products.

Structure (SMILES) | IC50
N[C@H](C(=O)Nc1cccc(F)c1CC[C@@H]1CN[C@H](COC(=O)NCC(F)(F)F)CO1)[C@H](c1ccc(F)cc1)c1ccc(OC(F)(F)F)cc1 [Example 231, (βS)-β-(4-fluorophenyl)-N-(3-fluoro-2-{2-[(2R,5S)-5-({[(2,2,2-trifluoroethyl)carbamoyl]oxy}methyl)morpholin-2-yl]ethyl}phenyl)-O-(trifluoromethyl)-L-tyrosinamide] | 150 nM
COC(=O)N[C@H](C(=O)Nc1ccccc1CC[C@@H]1CN[C@H](CCc2ccccc2NC(=O)OCc2ccccc2)CO1)C(c1ccccc1)c1ccccc1 [Example 74, methyl N-[(1S)-1-benzhydryl-2-[[2-[2-[(2R,5R)-5-[2-(2-benzyloxycarbonylamino-phenyl)ethyl]morpholin-2-yl]ethyl]phenyl]amino]-2-oxo-ethyl]carbamate] | 10 nM
COC(=O)N[C@H](C(=O)Nc1ccccc1CC[C@@H]1CN[C@H](CNS(=O)(=O)c2ccccc2)CO1)C(c1ccccc1)c1ccccc1 [Example 44, Nα-(methoxycarbonyl)-β-phenyl-N-(2-{2-[(2R,5R)-5-{[(phenylsulfonyl)amino]methyl}morpholin-2-yl]ethyl}phenyl)-L-phenylalaninamide] | 26 nM
N[C@H](C(=O)Nc1ccc(F)cc1CC[C@@H]1CN[C@H](COC(=O)NCC(F)F)CO1)C(c1ccccc1)c1ccccc1 [Example 192, N-(2-{2-[(2R,5S)-5-({[(2,2-difluoroethyl)carbamoyl]oxy}methyl)morpholin-2-yl]ethyl}-4-fluorophenyl)-β-phenyl-L-phenylalaninamide] | 130 nM
COC(=O)N[C@H](C(=O)Nc1ccccc1CC[C@@H]1CN[C@H](COc2ccccc2)CO1)C(c1ccccc1)c1ccccc1 [Example 63, Nα-(methoxycarbonyl)-N-(2-{2-[(2R,5S)-5-(phenoxymethyl)morpholin-2-yl]ethyl}phenyl)-β-phenyl-L-phenylalaninamide] | 49 nM
COC(=O)N[C@H](C(=O)Nc1ccccc1CC[C@@H]1CN[C@H](CNC(=O)c2ccccc2)CO1)C(c1ccccc1)c1ccccc1 [Example 52, Nα-(methoxycarbonyl)-β-phenyl-N-(2-{2-[(2R,5R)-5-{[(phenylcarbonyl)amino]methyl}morpholin-2-yl]ethyl}phenyl)-L-phenylalaninamide] | 96 nM
CCNC(=O)Nc1ccccc1CC[C@@H]1CO[C@H](CCc2ccccc2NC(=O)[C@@H](NC(=O)OC)C(c2ccccc2)c2ccccc2)CN1 [Example 77] | 15 nM
N[C@H](C(=O)Nc1cncc(F)c1CC[C@@H]1CN[C@H](COC(=O)N[C@@H]2COC[C@@H]2F)CO1)C(c1ccc(F)cc1)c1ccc(F)cc1 [Example 211] | 12 nM
COC(=O)N[C@H](C(=O)Nc1ccccc1CC[C@@H]1CN[C@H](COC(=O)NCC2CC2)CO1)C(c1ccccc1)c1ccccc1 [Example 22, methyl N-[(1S)-1-benzhydryl-2-[[2-[2-[(2R,5S)-5-(cyclopropylmethylcarbamoyloxymethyl)morpholin-2-yl]ethyl]phenyl]amino]-2-oxo-ethyl]carbamate] | 58 nM
COC(=O)N[C@H](C(=O)Nc1ccccc1CC[C@@H]1CN[C@H](COC(=O)NCC(F)F)CO1)C(c1ccccc1)c1ccccc1 [Example 24, methyl N-[(1S)-1-benzhydryl-2-[[2-[2-[(2R,5S)-5-(2,2-difluoroethylcarbamoyloxymethyl)morpholin-2-yl]ethyl]phenyl]amino]-2-oxo-ethyl]carbamate] | 85 nM
COC(=O)N[C@H](C(=O)Nc1ccccc1CC[C@@H]1CN[C@H](CNS(=O)(=O)c2ccc3cnnn3c2)CO1)C(c1ccccc1)c1ccccc1 [Example 45, methyl N-[(1S)-1-benzhydryl-2-oxo-2-[[2-[2-[(2R,5R)-5-[(triazolo[1,5-a]pyridin-6-ylsulfonylamino)methyl]morpholin-2-yl]ethyl]phenyl]amino]ethyl]carbamate] | 21 nM
COC(=O)N[C@H](C(=O)Nc1ccccc1CC[C@@H]1CN[C@H](CNC(=O)c2cc3ncccn3n2)CO1)C(c1ccccc1)c1ccccc1 [Example 59, methyl N-[(1S)-1-benzhydryl-2-oxo-2-[[2-[2-[(2R,5R)-5-[(pyrazolo[1,5-a]pyrimidine-2-carbonylamino)methyl]morpholin-2-yl]ethyl]phenyl]amino]ethyl] carbamate] | 71 nM
COC(=O)N[C@H](C(=O)Nc1ccccc1CC[C@@H]1CN[C@H](C(=O)NCc2ccccc2)CO1)C(c1ccccc1)c1ccccc1 [Example 2, N-(2-{2-[(2R,5S)-5-(benzylcarbamoyl)morpholin-2-yl]ethyl}phenyl)-Nα-(methoxycarbonyl)-β-phenyl-L-phenylalaninamide] | 1.4 nM
COC(=O)N[C@H](C(=O)Nc1c(CC[C@@H]2CN[C@H](COC(=O)NCC(F)(F)F)CO2)cc[nH]c1=O)C(c1ccccc1)c1ccccc1 [Example 39, Nα-(methoxycarbonyl)-N-(2-oxo-4-{2-[(2R,5S)-5-({[(2,2,2-trifluoroethyl)carbamoyl]oxy}methyl)morpholin-2-yl]ethyl}-1,2-dihydropyridin-3-yl)-β-phenyl-L-phenylalaninamide] | 2.3 nM
COC(=O)N[C@H](C(=O)Nc1ccccc1CC[C@@H]1CN[C@H](CCCc2ccccc2)CO1)C(c1ccccc1)c1ccccc1 [Example 67, methyl{(1S)-1-(diphenylmethyl)-2-oxo-2-[(2-{2-[(2R,5R)-5-(3-phenylpropyl)morpholin-2-yl]ethyl}phenyl)amino]ethyl}carbamate] | 26 nM
COC(=O)N[C@H](C(=O)Nc1ccccc1CC[C@@H]1CN[C@H](Cn2cc(-c3ccccc3)nn2)CO1)C(c1ccccc1)c1ccccc1 [Example 64, Nα-(methoxycarbonyl)-β-phenyl-N-[2-(2-{(2R,5R)-5-[(4-phenyl-1H-1,2,3-triazol-1-yl)methyl]morpholin-2-yl}ethyl)phenyl]-L-phenylalaninamide] | 56 nM
COC(=O)N[C@H](C(=O)Nc1ccccc1CC[C@@H]1CN[C@H](CNC(=O)Nc2cc[nH]n2)CO1)C(c1ccccc1)c1ccccc1 [Example 43, methyl N-[(1S)-1-benzhydryl-2-oxo-2-[[2-[2-[(2R,5R)-5-[(1H-pyrazol-3-ylcarbamoylamino)methyl]morpholin-2-yl]ethyl]phenyl]amino]ethyl]carbamate] | 96 nM
COC(=O)N[C@H](C(=O)Nc1cnccc1CC[C@@H]1CN[C@H](COC(=O)NCC(F)(F)F)CO1)C(c1ccccc1)c1ccccc1 [Example 34, Nα-(methoxycarbonyl)-β-phenyl-N-(4-{2-[(2R,5S)-5-({[(2,2,2-trifluoroethyl)carbamoyl]oxy}methyl)morpholin-2-yl]ethyl}pyridin-3-yl)-L-phenylalaninamide] | 14 nM
COC(=O)N[C@H](C(=O)Nc1ccccc1CC[C@@H]1CN[C@H](C(=O)NS(=O)(=O)c2ccccc2)CO1)C(c1ccccc1)c1ccccc1 [Example 10, Nα-(methoxycarbonyl)-β-phenyl-N-[2-(2-{(2R,5S)-5-[(phenylsulfonyl)carbamoyl]morpholin-2-yl}ethyl)phenyl]-L-phenylalaninamide] | 17 nM
CS(=O)(=O)CC[C@@H]1CO[C@H](COc2c(F)cccc2NC(=O)[C@@H](N)C(c2ccccc2)c2ccccc2)CN1 [Example 232, N-[3-fluoro-2-({(2S,5R)-5-[2-(methylsulfonyl)ethyl]morpholin-2-yl}methoxy)phenyl]-β-phenyl-L-phenylalaninamide] | 150 nM
COC(=O)N[C@H](C(=O)Nc1ccccc1CC[C@@H]1CN[C@H](CNC(=O)Cc2ccccc2)CO1)C(c1ccccc1)c1ccccc1 [Example 53, Nα-(methoxycarbonyl)-β-phenyl-N-(2-{2-[(2R,5R)-5-{[(phenylacetyl)amino]methyl}morpholin-2-yl]ethyl}phenyl)-L-phenylalaninamide] | 12 nM
COC(=O)N[C@H](C(=O)Nc1ccccc1CC[C@@H]1CN[C@H](COC(=O)NCc2cccc3ccncc23)CO1)C(c1ccccc1)c1ccccc1 [Example 18, methyl N-[(1S)-1-benzhydryl-2-[[2-[2-[(2R,5S)-5-(8-isoquinolylmethylcarbamoyloxymethyl)morpholin-2-yl]ethyl]phenyl]amino]-2-oxo-ethyl]carbamate] | 28 nM
NC(=O)OC[C@@H]1CO[C@H](CCc2c(F)cncc2NC(=O)[C@@H](N)C(c2ccc(F)cc2)c2ccc(F)cc2)CN1 [Example 119, N-[4-(2-{(2R,5S)-5-[(Carbamoyloxy)methyl]morpholin-2-yl}ethyl)-5-fluoropyridin-3-yl]-4-fluoro-β-(4-fluorophenyl)-L-phenylalaninamide] | 6.9 nM
N[C@H](C(=O)Nc1cccc(F)c1CC[C@@H]1CN[C@H](COC(=O)NCC(F)(F)F)CO1)[C@H](c1ccc(F)cc1)c1ccc(Oc2ccccc2)cc1 [Example 230, (βS)-β-(4-fluorophenyl)-N-(3-fluoro-2-{2-[(2R,5S)-5-({[(2,2,2-trifluoroethyl)carbamoyl]oxy}methyl)morpholin-2-yl]ethyl}phenyl)-O-phenyl-L-tyrosinamide] | 180 nM
N[C@H](C(=O)Nc1c(F)cccc1OC[C@@H]1CN[C@H](COC(=O)NCC(F)(F)F)CO1)C(c1ccc(F)cc1)c1ccc(F)cc1 [Example 200, 4-fluoro-β-(4-fluorophenyl)-N-(2-fluoro-6-{[(2S,5S)-5-({[(2,2,2-trifluoroethyl)carbamoyl]oxy}methyl)morpholin-2-yl]methoxy}phenyl)-L-phenylalaninamide] | 31 nM
